{"source": "paper PMC9186351", "about": "“Discovery of N-quinazolinone-4-hydroxy-2-quinolone-3-carboxamides as DNA gyrase B-targeted antibacterial agents” (Journal of Enzyme Inhibition and Medicinal Chemistry, 2022)", "key": {"S. aureus DNA gyrase": {"biological_target": "S. aureus DNA gyrase", "conditions": "Figure 1; cited from earlier work"}, "[1]": {"test": "Cytotoxicity, SRB assay, HUVEC", "assay_type": "cell-based, human", "conditions": "human, HUVEC cells, read-out: CC50 for HUVECs (positive control)", "procedure": "(§1) Cytotoxicity in terms of CC50 was determined by the SRB assay according to the protocol described in our previous publication.[16] Briefly, human HUVECs or HepG2 cells were seeded in the wells of 96-well plates at a concentration of 1 × 10^5 cells per well and incubated at 37 °C for 24 h. […] The cells were fixed with 10% trichloroacetic acid (w/v) at 4 °C for 1 h, washed five times with distilled water, and stained with 0.4% SRB solution at room temperature for another 20 min. The cells were then washed five times with 1% acetic acid and air-dried. The protein-bound dye was dissolved in 10 mM Tris-base solution and shaken for 5 min. The optical density (OD) was measured at 540 nm using a microplate reader to estimate the cell viability (%). With the viability values (%) of the cells treated by the compound at different concentrations as input, the CC50 value was determined by the non-linear regression with normalised dose-response fit implemented in GraphPad Prism version 5 software (GraphPad Software Inc., La Jolla, CA). The experiment was performed in duplicate, and paclitaxel was used as the positive drug for this assay."}, "[2]": {"test": "Cytotoxicity, SRB assay, HepG2", "assay_type": "cell-based, human", "conditions": "human, HepG2 cells, read-out: CC50 for HepG2 cells (positive control)", "procedure": "as §1"}, "[3]": {"system": "vancomycin intermediate resistant S. aureus (VISA)", "test": "MIC by broth microdilution, VISA strains", "assay_type": "cell-based", "procedure": "(§2) All of the bacterial strains used in this study were obtained from the Collection Centre of Pathogen Microorganism of Chinese Academy of Medical Sciences (CAMS-CCPM-A) in China. All of the isolates were stored at −80 °C and streaked on tryptic soy agar (TSA) plates to obtain overnight cultures. The MICs of the test compounds were determined by the broth microdilution method in accordance with the Clinical and Laboratory Standards Institute (CLSI) guidelines.[20] Cation-adjusted Mueller-Hinton broth (CAMHB) was used as the growth medium for MIC assays. Briefly, 100 μL of serially diluted compounds (starting concentrations were 64 μg/mL) in CAMH broth were added to the wells of 96-well microtiter plates. Then, 10 µL of 5 × 10^6 CFU/mL bacterial culture was added to each well. […] The MIC was defined as the lowest concentration of a compound that inhibited visual growth of the bacteria. Vancomycin was set as the positive control for this assay."}, "[4]": {"system": "methicillin-resistant S. aureus (MRSA)", "test": "MIC by broth microdilution, MRSA strains", "assay_type": "cell-based", "conditions": "Staphylococcus aureus", "procedure": "as §2"}, "[5]": {"system": "methicillin-sensitive S. aureus (MSSA)", "test": "MIC by broth microdilution, MSSA isolates", "assay_type": "cell-based", "conditions": "Staphylococcus aureus", "procedure": "as §2"}, "MRSA/VISA strains": {"system": "MRSA/VISA strains", "test": "MIC by broth microdilution, MRSA and VISA panel", "assay_type": "cell-based, S. aureus", "conditions": "Staphylococcus aureus, ATCC 33591 / ATCC 43300 / ATCC 700699 / MRSA / VISA, read-out: MICs for MRSA and VISA strains", "procedure": "as §2"}, "[6]": {"test": "Mouse microsomal stability assay", "assay_type": "in vitro ADME", "conditions": "pH 7.4; mouse liver microsomes, NADPH; read-out: In vitro metabolic stability t1/2 (min) in liver microsomes", "procedure": "The mouse liver microsomes were purchased from BioreclamationIVT and stored at −80 °C. The working solutions (0.2 mM) of the control compound, i.e. dextromethorphan, and the test compound dissolved in DMSO were prepared. Terfenadine (5 ng/mL) and tolbutamide (10 ng/mL) dissolved in acetonitrile were used as two quenching solutions. NADPH was dissolved in the phosphate buffer (50 mM K2HPO4, pH 7.4) at 5 mM. The mouse liver microsomes were thawed at 37 °C. The concentration of the stock solution was 20 mg/mL. The working solution (0.629 mg/mL) was prepared by dilution in phosphate buffer.\nThe working solution of the control/test compound (1.5 µL) was mixed with the liver microsome working solution (238.5 µL) in a 96-well plate and pre-incubated at 37 °C for 5 min. The 5 mM NADPH working solution (60 µL) was added to the solution to initiate the metabolic reaction. At each time point (0, 5, 15, 30, and 60 for the control/test compound), 30 µL of the reaction mixture was sampled and moved to 300 µL of quenching solutions. When the sampling was done, each sample was centrifuged at 4000 rpm at 4 °C for 15 min. The supernatant was analysed with the same HPLC system as the plasma stability assay. The residues (%) of the test/control compound along with the incubation time were calculated based on which the half-life (t1/2) value was determined."}, "in vitro": {"test": "in vitro", "assay_type": "in vitro ADME, mouse", "conditions": "mouse plasma, 37 °C; read-out: In vitro metabolic stability t1/2 (min) in plasma", "procedure": "The mouse plasma was purchased from Charles River and stored at −20 °C. The stock solution of the test compound dissolved in DMSO (50 mM) was prepared and diluted to obtain a working solution at the concentration of 0.2 mM. The working solution of the control compound, i.e. propantheline, was similarly prepared (0.2 mM). Terfenadine (5 ng/mL) and tolbutamide (10 ng/mL) dissolved in acetonitrile were used as two quenching solutions.\nThe mouse plasma was pre-warmed at 37 °C for 15 min. The working solution of the test/control compound (2 µL) was then added to the mouse plasma (398 µL) in a 96-well plate. Next, 30 µL of the reaction mixture was sampled and moved to 300 µL of quenching solutions at each time point: 0, 5, 15, 30, 60, and 120 min for the control compound and 0, 15, 30, 60, and 120 min for the test compound. When the sampling was done, each sample was centrifuged at 4000 rpm at 4 °C for 15 min. Then, 100 µL of the supernatant was removed and mixed with 100 µL of distilled water for LC-MS/MS analysis with Shimadzu HPLC system and the AB Sciex API 4000 QTRAP instrument. The remaining compound (%) after incubation in plasma versus the incubation time was plotted. The half-life (t1/2) value of the compound was determined via linear regression from the plot."}}, "note": "Like-named read-outs stand apart in the source and are kept apart here."}
{"smiles": "CCc1[nH]c(C(=O)NC2CCN(c3nnc(C(C)(C)O)s3)CC2OC)nc1Cl", "note": "(stereo not drawn) [DS-2969b]", "values": [{"measurement": "S. aureus DNA gyrase IC50", "setting": "S. aureus DNA gyrase", "value": 0.14, "unit": "µg/mL"}]}
{"smiles": "CC(=O)O[C@H]1C(=O)[C@@]2(C)[C@H]([C@H](OC(=O)c3ccccc3)[C@]3(O)C[C@H](OC(=O)[C@H](O)[C@@H](NC(=O)c4ccccc4)c4ccccc4)C(C)=C1C3(C)C)[C@]1(OC(C)=O)CO[C@@H]1C[C@@H]2O", "note": "[Paclitaxel, reference compound]", "values": [{"measurement": "CC50 at 72 h", "setting": "[1]", "value": 1.7, "unit": "nM"}, {"measurement": "CC50 at 72 h", "setting": "[2]", "value": 12.7, "unit": "nM"}]}
{"smiles": "CN[C@H](CC(C)C)C(=O)N[C@H]1C(=O)N[C@@H](CC(N)=O)C(=O)N[C@H]2C(=O)N[C@H]3C(=O)N[C@H](C(=O)N[C@H](C(=O)O)c4cc(O)cc(O)c4-c4cc3ccc4O)[C@H](O)c3ccc(c(Cl)c3)Oc3cc2cc(c3O[C@@H]2O[C@H](CO)[C@@H](O)[C@H](O)[C@H]2O[C@H]2C[C@](C)(N)[C@H](O)[C@H](C)O2)Oc2ccc(cc2Cl)[C@H]1O", "note": "[Vancomycin, reference compound]", "values": [{"measurement": "MIC", "setting": "[3]; Staphylococcus aureus, ATCC 700699 / VISA", "value": 4, "unit": "µg/mL"}, {"measurement": "MIC", "setting": "[3]; Staphylococcus aureus, VISA", "value": 4, "unit": "µg/mL"}, {"measurement": "MIC", "setting": "[3]; VISA HIP 5827", "value": 4.0, "unit": "µg/mL"}, {"measurement": "MIC", "setting": "[4]; ATCC 33591 / MRSA", "value": 2, "unit": "µg/mL"}, {"measurement": "MIC", "setting": "[4]; ATCC 43300 / MRSA", "value": 1, "unit": "µg/mL"}, {"measurement": "MIC", "setting": "[4]; MRSA", "value": 0.5, "unit": "µg/mL"}, {"measurement": "MIC", "setting": "[5]; ATCC 29213 / BAA-1708 / BAA-976 / MSSA, read-out: MIC over the five MSSA isolates, ATCC 29213, 15, 18-3, BAA976, BAA1708, span over isolates", "value": "0.5 to 1", "unit": "µg/mL"}, {"measurement": "MIC", "setting": "[5]; ATCC 29213 / MSSA, MSSA ATCC 29213", "value": 1, "unit": "µg/mL"}, {"measurement": "MIC", "setting": "[5]; BAA-976 / MSSA, MSSA BAA976", "value": 0.5, "unit": "µg/mL"}, {"measurement": "MIC", "setting": "[5]; BAA-1708 / MSSA, MSSA BAA1708", "value": 1, "unit": "µg/mL"}, {"measurement": "MIC", "setting": "[5]; MSSA, MSSA 15", "value": 1, "unit": "µg/mL"}, {"measurement": "MIC", "setting": "[5]; MSSA, MSSA 18-3", "value": 0.5, "unit": "µg/mL"}, {"measurement": "MIC", "setting": "MRSA/VISA strains", "value": "0.5 to 4", "unit": "µg/mL"}]}
{"smiles": "COc1ccc2c(c1)[C@]13CCCC[C@@H]1[C@H](C2)N(C)CC3", "note": "[dextromethorphan, reference compound]", "values": [{"measurement": "half-life at 1 µM", "setting": "[6]", "value": 16, "unit": "min"}]}
{"smiles": "CC(C)[N+](C)(CCOC(=O)C1c2ccccc2Oc2ccccc21)C(C)C", "note": "[propantheline, reference compound]", "values": [{"measurement": "half-life at 1 µM", "setting": "in vitro", "value": 66.3, "unit": "min"}]}
